Assay results published in patent publication US6689773B2, “Uracil substituted phenyl sulfamoyl carboxamides” (BASF Aktiengesellschaft, priority 2000, dated 2004).

Tests used:
Format in all cases: in vivo
[1] = tested on: XANST, Cocklebur, Xanthium strumariam; assay: Postemergence herbicidal evaluation (Example 147); conditions: rating scale 0-9, two to three weeks after treatment
In short: (§1)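 Ratings on a 0–9 scale cover stand, vigor, malformation, size and chlorosis versus untreated controls, scored two to three weeks after treatment and averaged across tests. Plants about two weeks old received a spray of about 0.016–0.032 kg/ha active in acetone/water (80/20) with 1.0% SUN-IT II.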

[2] = tested on: GLXMA, Soybean, Glycine max, (L.) Merr.; assay: Postemergence herbicidal evaluation (Example 147); conditions: rating scale 0-9, two to three weeks after treatment
In short: as §1

[3] = tested on: IPOHE, Morningglory, Ivyleaf, Ipomoea hederacea, (L)Jacq.; assay: Postemergence herbicidal evaluation (Example 147); conditions: rating scale 0-9, two to three weeks after treatment
In short: as §1

[4] = tested on: ALOMY, Blackgrass, Alopecurus myosuroides; assay: Postemergence herbicidal evaluation (Example 147); conditions: rating scale 0-9, two to three weeks after treatment
In short: as §1

[5] = tested on: AMBEL, Ragweed, Common, Ambrosia artemiisifolia, L.; assay: Postemergence herbicidal evaluation (Example 147); conditions: rating scale 0-9, two to three weeks after treatment
In short: as §1

[6] = tested on: DIGSA, Crabgrass, (Hairy) L, Digitaria sanguinalis, (L)Scop; assay: Postemergence herbicidal evaluation (Example 147); conditions: rating scale 0-9, two to three weeks after treatment
In short: as §1

[7] = tested on: TRZAW, Winter wheat, Tritium Aestivum, L. (Winter); assay: Postemergence herbicidal evaluation (Example 147); conditions: rating scale 0-9, two to three weeks after treatment
In short: as §1

[8] = tested on: ECHCG, Barnyardgrass, Echinochloa crusgalli, (L.)Beau; assay: Postemergence herbicidal evaluation (Example 147); conditions: rating scale 0-9, two to three weeks after treatment
In short: as §1

[9] = tested on: CHEAL, Lambsquarters, Chenopodium album, L. Common; assay: Postemergence herbicidal evaluation (Example 147); conditions: rating scale 0-9, two to three weeks after treatment
In short: as §1

[10] = tested on: ABUTH, Velvetleaf, Abutilon theophrasti, Medic.; assay: Postemergence herbicidal evaluation (Example 147); conditions: rating scale 0-9, two to three weeks after treatment
In short: as §1

[11] = tested on: ZEAMX, Field corn, Zea mays L.; assay: Postemergence herbicidal evaluation (Example 147); conditions: rating scale 0-9, two to three weeks after treatment
In short: as §1

[12] = tested on: SETVI, Green foxtail, Setaria viridis, (L.)Beau; assay: Postemergence herbicidal evaluation (Example 147); conditions: rating scale 0-9, two to three weeks after treatment
In short: as §1

[13] = tested on: XANST, Cocklebur, Xanthium strumariam; assay: Preemergence herbicidal evaluation (Example 148); conditions: rating scale 0-9, two to four weeks after treatment
In short: (§2)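 Rate ~0.125–0.250 kg/ha, aqueous acetone spray onto soil post-sowing, pre-emergence. Greenhouse 2–4 wk. Visual injury score vs control; replicates averaged.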

[14] = tested on: GLXMA, Soybean, Glycine max, (L.) Merr.; assay: Preemergence herbicidal evaluation (Example 148); conditions: rating scale 0-9, two to four weeks after treatment
In short: as §2

[15] = tested on: IPOHE, Morningglory, Ivyleaf, Ipomoea hederacea, (L)Jacq.; assay: Preemergence herbicidal evaluation (Example 148); conditions: rating scale 0-9, two to four weeks after treatment
In short: as §2

[16] = tested on: ALOMY, Blackgrass, Alopecurus myosuroides; assay: Preemergence herbicidal evaluation (Example 148); conditions: rating scale 0-9, two to four weeks after treatment
In short: as §2

[17] = tested on: AMBEL, Ragweed, Common, Ambrosia artemiisifolia, L.; assay: Preemergence herbicidal evaluation (Example 148); conditions: rating scale 0-9, two to four weeks after treatment
In short: as §2

[18] = tested on: DIGSA, Crabgrass, (Hairy) L, Digitaria sanguinalis, (L)Scop; assay: Preemergence herbicidal evaluation (Example 148); conditions: rating scale 0-9, two to four weeks after treatment
In short: as §2

[19] = tested on: TRZAW, Winter wheat, Tritium Aestivum, L. (Winter); assay: Preemergence herbicidal evaluation (Example 148); conditions: rating scale 0-9, two to four weeks after treatment
In short: as §2

[20] = tested on: ECHCG, Barnyardgrass, Echinochloa crusgalli, (L.)Beau; assay: Preemergence herbicidal evaluation (Example 148); conditions: rating scale 0-9, two to four weeks after treatment
In short: as §2

[21] = tested on: CHEAL, Lambsquarters, Chenopodium album, L. Common; assay: Preemergence herbicidal evaluation (Example 148); conditions: rating scale 0-9, two to four weeks after treatment
In short: as §2

[22] = tested on: ABUTH, Velvetleaf, Abutilon theophrasti, Medic.; assay: Preemergence herbicidal evaluation (Example 148); conditions: rating scale 0-9, two to four weeks after treatment
In short: as §2

[23] = tested on: ZEAMX, Field corn, Zea mays L.; assay: Preemergence herbicidal evaluation (Example 148); conditions: rating scale 0-9, two to four weeks after treatment
In short: as §2

[24] = tested on: SETVI, Green foxtail, Setaria viridis, (L.)Beau; assay: Preemergence herbicidal evaluation (Example 148); conditions: rating scale 0-9, two to four weeks after treatment
In short: as §2

C=CCN(C)S(=O)(=O)NC(=O)c1cc(-n2c(=O)cc(C(F)(F)F)n(C)c2=O)c(F)cc1Cl [Example 59]
Postemergence herbicidal rating XANST ([1]; rate 0.016 kg/ha): 9.0
Postemergence herbicidal rating XANST ([1]; rate 0.032 kg/ha): 9.0
Postemergence herbicidal rating GLXMA ([2]; rate 0.016 kg/ha): 8.0
Postemergence herbicidal rating GLXMA ([2]; rate 0.032 kg/ha): 8.5
Postemergence herbicidal rating IPOHE ([3]; rate 0.016 kg/ha): 9.0
Postemergence herbicidal rating IPOHE ([3]; rate 0.032 kg/ha): 9.0
Postemergence herbicidal rating ALMOY ([4]; rate 0.016 kg/ha): 3.0
Postemergence herbicidal rating ALMOY ([4]; rate 0.032 kg/ha): 4.0
Postemergence herbicidal rating AMBEL ([5]; rate 0.016 kg/ha): 7.0
Postemergence herbicidal rating AMBEL ([5]; rate 0.032 kg/ha): 9.0
Postemergence herbicidal rating DIGSA ([6]; rate 0.016 kg/ha): 4.0
Postemergence herbicidal rating DIGSA ([6]; rate 0.032 kg/ha): 5.0
Postemergence herbicidal rating TRZAW ([7]; rate 0.016 kg/ha): 4.0
Postemergence herbicidal rating TRZAW ([7]; rate 0.032 kg/ha): 4.5
Postemergence herbicidal rating ECHCG ([8]; rate 0.016 kg/ha): 6.0
Postemergence herbicidal rating ECHCG ([8]; rate 0.032 kg/ha): 7.0
Postemergence herbicidal rating CHEAL ([9]; rate 0.016 kg/ha): 7.0
Postemergence herbicidal rating CHEAL ([9]; rate 0.032 kg/ha): 8.0
Postemergence herbicidal rating ABUTH ([10]; rate 0.016 kg/ha): 9.0
Postemergence herbicidal rating ABUTH ([10]; rate 0.032 kg/ha): 9.0
Postemergence herbicidal rating ZEAMX ([11]; rate 0.016 kg/ha): 8.0
Postemergence herbicidal rating ZEAMX ([11]; rate 0.032 kg/ha): 8.0
Postemergence herbicidal rating SETVI ([12]; rate 0.016 kg/ha): 7.0
Postemergence herbicidal rating SETVI ([12]; rate 0.032 kg/ha): 8.0
Preemergence herbicidal rating XANST ([13]; rate 0.125 kg/ha): 0.0
Preemergence herbicidal rating XANST ([13]; rate 0.25 kg/ha): 9.0
Preemergence herbicidal rating GLXMA ([14]; rate 0.125 kg/ha): 2.0
Preemergence herbicidal rating GLXMA ([14]; rate 0.25 kg/ha): 8.0
Preemergence herbicidal rating IPOHE ([15]; rate 0.125 kg/ha): 9.0
Preemergence herbicidal rating IPOHE ([15]; rate 0.25 kg/ha): 9.0
Preemergence herbicidal rating ALMOY ([16]; rate 0.125 kg/ha): 0.0
Preemergence herbicidal rating ALMOY ([16]; rate 0.25 kg/ha): 4.0
Preemergence herbicidal rating AMBEL ([17]; rate 0.125 kg/ha): 9.0
Preemergence herbicidal rating AMBEL ([17]; rate 0.25 kg/ha): 9.0
Preemergence herbicidal rating DIGSA ([18]; rate 0.125 kg/ha): 3.0
Preemergence herbicidal rating DIGSA ([18]; rate 0.25 kg/ha): 7.0
Preemergence herbicidal rating TRZAW ([19]; rate 0.125 kg/ha): 0.0
Preemergence herbicidal rating TRZAW ([19]; rate 0.25 kg/ha): 0.0
Preemergence herbicidal rating ECHCG ([20]; rate 0.125 kg/ha): 0.0
Preemergence herbicidal rating ECHCG ([20]; rate 0.25 kg/ha): 3.0
Preemergence herbicidal rating CHEAL ([21]; rate 0.125 kg/ha): 9.0
Preemergence herbicidal rating CHEAL ([21]; rate 0.25 kg/ha): 9.0
Preemergence herbicidal rating ABUTH ([22]; rate 0.125 kg/ha): 9.0
Preemergence herbicidal rating ABUTH ([22]; rate 0.25 kg/ha): 9.0
Preemergence herbicidal rating ZEAMX ([23]; rate 0.125 kg/ha): 0.0
Preemergence herbicidal rating ZEAMX ([23]; rate 0.25 kg/ha): 2.0
Preemergence herbicidal rating SETVI ([24]; rate 0.125 kg/ha): 4.0
Preemergence herbicidal rating SETVI ([24]; rate 0.25 kg/ha): 9.0
